Experimental findings from patent US8772321B2, “Heteroannelated anthraquinone derivatives for inhibiting cancers” (National Defense Medical Center, priority 2008, dated 2014) are described below.

The structures appear in SMILES notation. Like-named read-outs stand apart in the source and are kept apart here.

The test system of experiment [1] is HL-60(TB). Description: NCI 60-cell panel dose-response. The settings on record: HL-60(TB) (Leukemia). It counts as cell-based, human.
For experiment [2], the system named is U1R. Kind of experiment: Cell proliferation inhibition in anti-Doxorubicin cell line. It is filed as cell-based.
Experiment [3] deals with A549/ATCC. Kind of experiment: NCI 60-cell panel dose-response. It counts as cell-based. As to conditions: Homo sapiens; A549/ATCC (Non-small cell lung cancer).
Experiment [4] concerns p53 and p21. Description: p53 and p21 protein expression, immunoblot. It is filed as cell-based, human. The settings on record: HeLa cells, 12 hours, immunoblot. How it is done: (§1) Cell lysates were prepared in lysis buffer (100 mM Tris-HCl pH 8.0, 150 mM NaCl, 0.1% SDS, and 1% Triton 100) at 4° C., separated by sodium dodecyl sulfate-polyacrylamide gel electrophoresis (SDS-PAGE), and then transferred onto a polyvinylidine difluoride membrane (Millipore, USA). Proteins were detected using antibodies against alpha actinin (ACTN), proliferating cell nuclear antigen (PCNA), p53, p21, cyclin B1, and cyclin D1 (Santa Cruz Biotechnology, USA), YH2A.X (EP854(2)Y, Epitomics, USA), cleaved caspase 3, cleaved poly(ADP-ribose) polymerase (PARP) and LC3B-II (Cell signaling, USA).
Cell cycle regulatory protein p21 is one of p53's targets. […] In this experiment, HeLa cells were treated with the indicated concentrations of DXR or NSC745885 for 12 hours and then assessed by immunoblot (FIG. 6A) and RT-PCR (FIG. 6B).
In FIG. 6C, HeLa cells were treated with the indicated concentrations of NSC745885 for 12 hours; proteasome inhibitor MG132 (1 uM or 10 uM) was added 3 hours before harvesting. Cell protein extracts were tested with anti-p53 and anti-p21 antibodies. The results are representative of two independent experiments.

In experiment [5] the test system is SAS cells. Kind of experiment: SAS cell proliferation / morphology. It counts as cell-based. The settings on record: 2.5 uM and 5 uM, 24 hours.
Experiment [6] relates to HCC-2998. Kind of experiment: NCI 60-cell panel dose-response. It is filed as cell-based. The settings on record: Homo sapiens; HCC-2998 (Colon cancer).
For experiment [7], the system named is p21 promoter reporter (p21-LUC). Description: p21 promoter reporter (p21-LUC) luciferase assay. The settings on record: HeLa cells, highest concentration. It is filed as cell-based, human. As to the method: HeLa and HeLa/shp53 cells were grown in DMEM supplemented with 10% charcoal/dextran-treated fetal bovine serum. Cells in a 24-well plate were transfected with jetPEI (PolyPlus-transfection, France) according to the manufacturer's protocol; total DNA was adjusted to 1.0 μg by the addition of empty vector DNA. Luciferase assays were performed using the Promega Luciferase Assay kit, and the measurement was expressed numerically as relative light units (RLU). Luciferase activities were presented as means and standard deviation of two transfected sets. […] Instead, the reproducibility of the observed effects on luciferase activity was determined in multiple independent transfection experiments.
HeLa cells infected with human papillomavirus and expressing the E6 oncoprotein, which maintains endogenous wild-type p53 at a very low concentration, are used as a model system for studying human cervical tumorigenesis. In order for us to confirm the effects of DXR and NSC745885 on endogenous p53, HeLa cells were transiently transfected with a p53-dependent reporter (pG13-LUC) (FIG. 7A) and a p21 promoter reporter (p21-LUC) (FIG. 7B), along with an expression vector for a well-known p53 activator (Zac1).

Experiment [8] concerns HeLa cells. Description: Apoptosis: cleaved PARP and caspase 3 immunoblot, DNA fragmentation gel. It counts as cell-based, human. As to conditions: 16 hours. As to the method: It is well noted that DXR can induce cardiomyocyte death by apoptosis and necrosis. DXR is also involved in other types of cellular processes, such as autophagy and senescence/aging. To investigate induction of apoptosis caused by NSC745885, we adopted DXR as a positive control and examined the levels of cleaved PARP and caspase 3 as apoptotic indicators using immunoblot (FIG. 4A), as well as DNA fragmentation using agarose gel electrophoresis (FIG. 4B). HeLa cells were treated with either DXR or NSC745885 at various doses for 16 hours. Subsequently, the total cellular protein was extracted and immunoblotted with antibodies against the cleaved types of PARP and caspase 3. Additionally, genomic DNA was isolated and analyzed by 2% agarose gel electrophoresis followed by ethidium bromide staining. The results (FIG. 4A and FIG. 4B) are representative of three independent experiments. […] Treatment with NSC745885 decreased protein stability, an effect that appeared to be selective, and was confirmed in other immunoblot analyses (shown in FIG. 6A, lanes 1 and 6).
as §1
A general note: A western blot detects proteins with antibodies after separation by electrophoresis.

Experiment [9] concerns NCI's 60 human cancer cell lines. Kind of experiment: NCI 60-cell panel dose-response, whole panel. It counts as cell-based.
The subject of experiment [10] is HeLa cells. Description: Senescence-associated β-galactosidase staining. It is filed as cell-based, human. As to conditions: 2.5 μM for 24 hours, stained after 48 hours. As to the method:
Cultured cells were washed in PBS (pH 7.4), incubated in a solution of 2% formaldehyde/0.2% glutaraldehyde, and then incubated overnight at 37° C. in freshly prepared staining solution consisting of 1 mg/mL X-gal (5-bromo-4-chloro-3-indolyl-β-D-galactoside), 5 mM K3Fe(CN)6, 5 mM K4Fe(CN)6, 150 mM NaCl and 2 mM MgCl2 in 40 mM citric acid/sodium phosphate, pH 6.0. Following this incubation, cells were washed with water and examined by light microscopy at 200× magnification.
In FIGS. 5C and 5D, HeLa cells were incubated with 2.5 μM NSC745885 for 24 hours. After 48 hours, cells were subjected to SA-β-galactosidase staining (FIG. 5C) and approximately 100 stained cells were quantified (*P<0.05; ** P<0.01; *** P<0.005). NSC745885 induced senescence at a rate of 25% (P=0.0085 compared to DMSO). (FIG. 5D) LC3B-I fragments were observed when the cells were exposed to the drug for longer period of time (FIG. 5A, panel labeled as LE). […] We also treated Hela cells with the autophagy inducer spermidine (Spd) and vehicle (DMSO), which act as the positive and the negative control, respectively.

Experiment [11] relates to CAK1-1. Kind of experiment: NCI 60-cell panel dose-response. It counts as cell-based. The settings on record: CAK1-1 (Renal cancer).
Experiment [12] relates to HeLa cells. Description: Cell cycle profile by FACS. It counts as cell-based, human. As to conditions: dose- and time-dependent. The text has this:
Cell cycle arrest is an important damage surveillance mechanism. […] Treating the cells with NSC745885 caused 47-58% of cells to arrest in sub-G1, which is indicative of cell death. This effect was dose- and time-dependent (FIG. 3, Panel B).
For orientation: A flow cytometer gives signals particle by particle.

In experiment [13] the test system is OVCAR-3. Description: NCI 60-cell panel dose-response. The settings on record: Homo sapiens, OVCAR-3, read-out: LC50.

Broadly, the GI50 is the concentration giving 50% growth inhibition. Broadly, the TGI is the concentration giving total growth inhibition. A higher TGI goes with lower sensitivity of the cells. Take `O=C1c2ccccc2C(=O)c2c1ccc1nsnc21` [NSC745885, anthra[2,1-c][1,2,5]thiadiazole-6,11-dione]: the GI50 is 160 nM in experiment [1]; 14700 nM in [3]; 16400 nM in experiment [6]; 160 to 17400 nM in experiment [9] (Homo sapiens, 60 cell, all cell lines of the panel, read-out: GI50, span over the 60-cell panel); 2040 nM in [9] (Homo sapiens, 60 cell, mean of the panel, read-out: GI50, mean over the 60-cell panel); 1610 nM in experiment [11] (Homo sapiens, 60 cell). The concentration for total growth inhibition (TGI) in experiment [1] stood at 400 nM; in experiment [11], 2960 nM. In experiment [2], the cell proliferation inhibition entry was “distinct the cell proliferation inhibiting ability”. For the same compound, the “p53 and p21 protein levels” value in [4] is “decreased p21 as well as p53 in a concentration-dependent manner”. The SAS cells proliferation result in [5] was “significantly inhibit”. The “p21 promoter reporter activity” value in experiment [7] is reported as “decreased p21 promoter reporter activity”. The “protein levels of cleaved PARP and caspase 3 at high concentration” value in experiment [8] (25 μM, compared to DXR) was “dramatically decreased”. Besides, in experiment [8] (various doses), the “induction of apoptosis (cleaved PARP, caspase 3, DNA fragmentation)” value is given as “comparable effect”. The CC50 in [9] (Homo sapiens, 60 cell, as low as, over the panel, read-out: LC50, lowest in the 60-cell panel) was at least 990 nM; in experiment [11] (Homo sapiens, 60 cell, read-out: LC50 (the source's name)) it was 5440 nM; in experiment [13], 11100 nM. In addition, the “TGI, lowest in the 60-cell panel” value in [9] (as low as, over the panel) is at least 400 nM. In experiment [10], the “senescence rate (SA-β-galactosidase staining)” value is given as 25%. Moreover, the “cells arrested in sub-G1” value in experiment [12] is on record as 47-58%.
